Laboratory results taken from PMC3597455 (International Journal of Oncology, 2013).

Legend:
GPC3-specific CTLs = conditions: without an autoimmune response; cited from earlier work
[1] = test system: RMA-S pulsed with mGPC3-1 peptide; assay: Cytotoxicity assay; format: cell-based, mouse; conditions: mGPC3-1-specific CTL line against RMA-S pulsed with mGPC3-1 peptide; calcein AM, 4 h; non-pulsed RMA-S 2.2%
CD8-positive cells = assay: IFN-γ ELISPOT after mGPC3-1 peptide vaccine in STAM mice; format: in vivo, STAM mice C57BL/6N-NASH; conditions: STAM mice immunized seven times with mGPC3-1 peptide vaccine; CD8-positive cells against RMA-S pulsed with mGPC3-1 peptide; n=3
[2] = test system: RMA-S pulsed with mGPC3-1 peptide; assay: IFN-γ ELISPOT of mGPC3-1 peptide-specific CTL line against peptide-pulsed RMA-S; format: cell-based, mouse; conditions: CTL line 1×10^5, RMA-S 5×10^4 pulsed with 10 μg/ml peptide, 20 h

Row | Sequence | induction of GPC3-specific CTLs (in words) (GPC3-specific CTLs) | % cytotoxicity [1] | average number of spots (IFN-γ ELISPOT) (CD8-positive cells) | IFN-γ release of CTL line to peptide-pulsed vs non-pulsed RMA-S (in words) [2]
1 | FVGEFFTDV [GPC3_144–152] | can induce GPC3-specific CTLs |  |  | 
2 | AMFKNNYPSL [mGPC3-1] |  | 16.4% | 100±74.3 spots | clearly released more IFN-γ
3 | EYILSLEEL [GPC3_298–306] | can induce GPC3-specific CTLs |  |  | 
